Test results reported in patent US20220340566A1, “BENZYL AMINE-CONTAINING 5,6-HETEROAROMATIC COMPOUNDS USEFUL AGAINST MYCOBACTERIAL INFECTION” (priority 2019, published 2022).

How the values were obtained:
[1] = system: Mycobacterium avium ATCC700898; assay: Determination of IC85 against M. avium (resazurin fluorescence); type: cell-based; conditions: Mycobacterium avium, ATCC700898, M. avium ATCC700898, CAMHB medium, 37° C., 3 days incubation then resazurin, fluorescence one day later; read-out: IC85
[2] = Metabolic stability test in pooled human liver microsomes; type: in vitro ADME; conditions: human liver microsomes 0.5 mg protein/mL, 1 mmol/L NADPH, 37° C., 30 minutes
Description: Using a commercially available pooled human liver microsomes, a compound of the present invention was reacted for a constant time, a remaining rate was calculated by comparing a reacted sample and an unreacted sample, thereby, a degree of metabolism in liver was assessed.
A reaction was performed (oxidative reaction) at 37° C. for 0 minute or 30 minutes in the presence of 1 mmol/L NADPH in 0.2 mL of a buffer (50 mmol/L Tris-HCl pH 7.4, 150 mmol/L potassium chloride, 10 mmol/L magnesium chloride) containing 0.5 mg protein/mL of human liver microsomes. After the reaction, 50 μL of the reaction solution was added to 100 μL of a methanol/acetonitrile=1/1 (v/v), mixed and centrifuged at 3000 rpm for 15 minutes. The compound of the present invention in the supernatant was quantified by LC/MS/MS or solid phase extraction (SPE)/MS, and a remaining amount of the compound of the present invention after the reaction was calculated, letting a compound amount at 0 minute reaction time to be 100%.

Compound | IC85 [1] [nM] | MS_h_% (remaining amount of compound after reaction, 0 minute = 100%) [2] [%]
Cc1nc2ccc(F)cn2c1C(=O)NCc1ccc(N2CCC(c3ccc(OC(F)(F)F)cc3)CC2)c(F)c1.Cl [Compound I-1-64] | 79 | 94
Cc1ccn2c(C(=O)NCc3ccc(N4CCC(c5ccc(OC(F)(F)F)cc5)CC4)c(F)c3)c(C)nc2c1.Cl [Compound I-1-65] | 120 | 96
CCc1nc2ccc(Cl)cn2c1C(=O)NCc1cc(F)c(N2CCC(c3ccc(OC(F)(F)F)cc3)CC2)c(F)c1.Cl [Compound I-1-66] | 11 | 83
Cc1ccn2c(C(=O)NCc3cc(F)c(N4CCC(c5ccc(OC(F)(F)F)cc5)CC4)c(F)c3)c(C)nc2c1.Cl [Compound I-1-67] | 68 | 93
CCc1nc2cc(F)ccn2c1C(=O)NCc1ccc(N2CCC(c3ccc(OC(F)(F)F)cc3)CC2)c(F)c1.Cl [Compound I-1-68] | 13 | 91
Cc1nc2cc(Cl)ccn2c1C(=O)NCc1ccc(N2CCC(c3ccc(OC(F)(F)F)cc3)CC2)c(F)c1.Cl [Compound I-1-69] | 510 | 89
Cc1ccn2nc(C)c(C(=O)NCc3ccc(N4CCN(c5ccc(OC(F)(F)F)cc5)[C@@H](C)C4)c(F)c3)c2c1.Cl [Compound I-1-70] | 25 | 84
Cc1ccn2nc(C)c(C(=O)NCc3ccc(N4CCN(c5ccc(OC(F)(F)F)cc5)[C@H](C)C4)c(F)c3)c2c1.Cl [Compound I-1-71] | 100 | 78
Cc1ccn2nc(C)c(C(=O)NCc3ccc(C4CCN(c5ccc(OC(F)(F)F)cc5)CC4)c(F)c3)c2c1.Cl [Compound I-1-72] | 66 | 87
CCOc1ccc(N2CCC(c3ccc(CNC(=O)c4c(CC)nc5ccc(Cl)cn45)cc3F)CC2)cc1.Cl [Compound I-1-73] | 19 | 90
CCc1nc2ccc(Cl)cn2c1C(=O)NCc1ccc(C2CCN(c3ccc(OC4CC4)cc3)CC2)c(F)c1.Cl [Compound I-1-74] | 39 | 64
CCc1nc2ccc(Cl)cn2c1C(=O)NCc1ccc(C2CCN(c3ccc(OCC4CC4)cc3)CC2)c(F)c1.Cl [Compound I-1-75] | 16 | 71
CCc1nc2ccc(Cl)cn2c1C(=O)NCc1ccc(C2CCN(c3ccc(OCC4CC4)nc3)CC2)c(F)c1.Cl [Compound I-1-76] | 46 | 80
CCc1nc2ccc(Cl)cn2c1C(=O)NCc1ccc(C2CCN(c3ccc(OCC4CC4)cn3)CC2)c(F)c1.Cl [Compound I-1-77] | 22 | 59
CCCCOc1ccc(N2CCC(c3ccc(CNC(=O)c4c(CC)nc5ccc(Cl)cn45)cc3F)CC2)cc1.Cl [Compound I-1-78] | 37 | 69
CCc1nc2ccc(Cl)cn2c1C(=O)NCc1ccc(C2CCN(c3ccc(OCC(C)C)cn3)CC2)c(F)c1.Cl [Compound I-1-79] | 36 | 65
CCc1nc2ccc(Cl)cn2c1C(=O)NCc1ccc(N2CCC(c3ccc(OC(F)(F)F)cc3)CC2)c(Cl)c1.Cl [Compound I-1-80] | 60 | 74
Cc1ccn2c(C(=O)NCc3ccc(N4CCC(c5ccc(OC(F)(F)F)cc5)CC4)cc3F)c(C)nc2c1.Cl [Compound I-1-81] | 330 | 94
Cc1ccn2c(C(=O)NCc3ccc(N4CCC(c5ccc(OC(F)(F)F)cc5)CC4)c(Cl)c3)c(C)nc2c1.Cl [Compound I-1-82] | 500 | 98
